The values below come from ChEMBL document CHEMBL1201862, “PubChem BioAssay data set” (2004).

SMILES strings stand for the structures.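 Cells were grown in 96-well plates and exposed to each compound for 48 hours at five concentrations; endpoints were interpolated linearly between bracketing concentrations, or set to the highest concentration if not reached. Here, GI50 denotes the concentration required for 50% inhibition of growth.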 Calls of active or inactive are those of the source. Rule as the data show it: active = GI50 up to about 1.1 µM and inactive = higher.

Test systems include UACC-62; RPMI-8226; M14; SW-620; TK-10; SK-MEL-28; SK-OV-3; Hs-578T; EKVX; NCI-H226; HOP-62; SK-MEL-5; IGROV-1; NCI-H522; SN12C; HCT-116; HCT-15; SR; CAKI-1.
Common to all, as to test: NCI tumour cell line growth inhibition, 48 h

`N#CCCN(CCC#N)c1ccc(/C=C2\N=C(c3ccccc3)N(c3ccccc3)C2=O)cc1`: the GI50 is > 100 µM (inactive) in the assay with UACC-62; 8.36 µM (inactive) with RPMI-8226; > 100 µM (inactive) in the assay with M14; > 100 µM (inactive) with SW-620; > 100 µM (inactive) in the assay on TK-10; > 100 µM (inactive) with SK-MEL-28. Also, the GI50 is > 100 µM (inactive) in the assay on SK-OV-3; 19.3 µM (inactive) with Hs-578T; > 100 µM (inactive) with EKVX; > 100 µM (inactive) with NCI-H226; > 100 µM (inactive) in the assay with HOP-62; 4.38 µM (inactive) in the assay with SK-MEL-5. The GI50 is 25.8 µM (inactive) in the assay on IGROV-1; 18.7 µM (inactive) with NCI-H522; > 100 µM (inactive) in the assay with SN12C; 5.93 µM (inactive) in the assay with HCT-116; 6.25 µM in the assay with HCT-15.

With `O=C(O)CCC(NC(=O)c1ccc(CNc2nc3ccccc3nc2C(=O)O)cc1)C(=O)O` (stereo not drawn), the GI50 with UACC-62, in the assay on RPMI-8226, in the assay on SR, in the assay on M14, in the assay on SW-620 and in the assay on TK-10 was > 100 µM (inactive) in each case. The GI50 in the assay on SK-MEL-28, in the assay with SK-OV-3, in the assay with Hs-578T, with EKVX, with NCI-H226 and in the assay on HOP-62 was > 100 µM (inactive) throughout. In addition, the GI50 was > 100 µM (inactive) in the assay with SK-MEL-5; > 100 µM (inactive) with IGROV-1; > 100 µM (inactive) in the assay with SN12C; > 100 µM (inactive) in the assay on HCT-116; greater than 100 µM with HCT-15.

For `CC(C)(C)OC(=O)NCC(=O)N1CCCN(C(=O)CNC(=O)OC(C)(C)C)CC1`, the GI50 in the assay on UACC-62, in the assay on RPMI-8226, in the assay with M14, in the assay on SW-620, in the assay on TK-10 and with SK-MEL-28 was > 100 µM (inactive) throughout. For the same compound, the GI50 in the assay with SK-OV-3, with Hs-578T, with EKVX, in the assay on NCI-H226, with HOP-62 and in the assay on SK-MEL-5 was > 100 µM (inactive) throughout. Also, the GI50 in the assay with IGROV-1 was > 100 µM (inactive); with NCI-H522, > 100 µM (inactive); in the assay with SN12C, > 100 µM (inactive); with HCT-116, > 100 µM (inactive); in the assay with HCT-15, greater than 100 µM; in the assay with CAKI-1, > 100 µM (inactive).

On to `CC(C)(C)n1c(=O)n2c(-c3ccccc3)c(-c3ccccc3)n2c1=O`, for which the GI50 in the assay with UACC-62 is > 100 µM (inactive); in the assay on RPMI-8226 it was 17.1 µM (inactive); in the assay with M14 it was 37 µM (inactive); in the assay with SW-620 it was > 100 µM (inactive); in the assay on TK-10, > 100 µM (inactive); in the assay on SK-MEL-28, > 100 µM (inactive). Moreover, the GI50 with SK-OV-3 is > 100 µM (inactive); in the assay with Hs-578T, > 100 µM (inactive); in the assay with EKVX it was > 100 µM (inactive); in the assay with NCI-H226, > 100 µM (inactive); in the assay with SK-MEL-5, 71.8 µM (inactive); in the assay with IGROV-1 it was > 100 µM (inactive). The GI50 in the assay on NCI-H522 was 17.5 µM (inactive); in the assay with SN12C, > 100 µM (inactive); in the assay on HCT-116, 25.4 µM (inactive); in the assay on HCT-15 it was greater than 100 µM; in the assay with CAKI-1 it was > 100 µM (inactive).

In the case of `Cc1cc(C)nc(NC(=S)Nc2ccc([N+](=O)[O-])cc2)c1`, the GI50 with UACC-62, with RPMI-8226, in the assay with SR, in the assay on SW-620, in the assay on TK-10 and in the assay with SK-MEL-28 was > 100 µM (inactive) in each case. Also, the GI50 with Hs-578T, in the assay on EKVX, with NCI-H226, in the assay on HOP-62, with SK-MEL-5 and in the assay with IGROV-1 was > 100 µM (inactive) in each case. Also, the GI50 with HCT-116 is > 100 µM (inactive); with HCT-15 it was greater than 100 µM; with CAKI-1, > 100 µM (inactive).

Turning to `O=[N+]([O-])/C=C/c1cccc(F)c1`, the GI50 in the assay with UACC-62 is 8.04 µM (inactive); in the assay with RPMI-8226, 1.48 µM (inactive); in the assay with M14, 2.74 µM (inactive); with SW-620, 2.58 µM (inactive); in the assay with TK-10, 3.82 µM (inactive); in the assay on SK-MEL-28 it was 2.28 µM (inactive). In addition, the GI50 in the assay with SK-OV-3 is 14.3 µM (inactive); with Hs-578T it was 3.12 µM (inactive); in the assay with EKVX, 3.03 µM (inactive); in the assay with NCI-H226 it was 2.25 µM (inactive); in the assay with HOP-62, 10.3 µM (inactive); in the assay on SK-MEL-5, 4.5 µM (inactive). For the same compound, the GI50 with IGROV-1 was 1.37 µM (inactive); in the assay on NCI-H522 it was 12.3 µM (inactive); in the assay on SN12C, 17 µM (inactive); in the assay on HCT-116, 0.603 µM (active); in the assay with HCT-15, 2.21 µM; with CAKI-1 it was 12.9 µM (inactive).

Regarding `Cc1cc2c(c(C(=O)NCC(=O)N[C@@H](C)C(=O)OCc3ccccc3)c1)Oc1c(cc(C)cc1C(=O)NCC(=O)N[C@@H](C)C(=O)OCc1ccccc1)S2`, the GI50 is 30.8 µM (inactive) with UACC-62; 43.3 µM (inactive) with RPMI-8226; 17.8 µM (inactive) in the assay on SR; > 100 µM (inactive) with M14; > 100 µM (inactive) in the assay on SW-620; > 100 µM (inactive) in the assay on SK-OV-3. Besides, the GI50 in the assay on Hs-578T was 26.2 µM (inactive); in the assay on EKVX it was > 100 µM (inactive); with NCI-H226, > 100 µM (inactive); with HOP-62, 71.3 µM (inactive); in the assay on SK-MEL-5, > 100 µM (inactive); with IGROV-1, 99.1 µM (inactive). In addition, the GI50 was > 100 µM (inactive) in the assay on SN12C, > 100 µM (inactive) in the assay on HCT-116, greater than 100 µM in the assay on HCT-15 and > 100 µM (inactive) with CAKI-1.

Consider `CC1=NCCN=C(C)C1/N=N/c1ccc2[nH]c(C)nc2c1`, for which the GI50 was 14.2 µM (inactive) in the assay with UACC-62; 3.11 µM (inactive) with RPMI-8226; 3.57 µM (inactive) in the assay on M14; 14.9 µM (inactive) in the assay on SW-620; 19.7 µM (inactive) with TK-10; 10.6 µM (inactive) in the assay on SK-MEL-28. The GI50 with SK-OV-3 is 19.1 µM (inactive); in the assay with Hs-578T it was 23.3 µM (inactive); with EKVX, 15.8 µM (inactive); with NCI-H226 it was 20.3 µM (inactive); with HOP-62 it was 22.1 µM (inactive); in the assay with IGROV-1 it was 25.9 µM (inactive). Besides, the GI50 in the assay with NCI-H522 was 17.4 µM (inactive); in the assay with SN12C it was 11.7 µM (inactive); with HCT-116, 13.2 µM (inactive); in the assay on HCT-15 it was 8.77 µM; in the assay on CAKI-1, 18.5 µM (inactive).

Regarding `CCOC(=O)c1c(-c2ccc(OC)c(O)c2)c(C#N)c(=S)n(C2OC(CO)C(O)C(O)C2O)c1-c1ccccc1` (stereo not drawn), the GI50 in the assay on UACC-62, in the assay with RPMI-8226, in the assay with SR, in the assay with M14, in the assay with SW-620 and in the assay with SK-MEL-28 was > 100 µM (inactive) in each case. Besides, the GI50 with Hs-578T is > 100 µM (inactive); in the assay with EKVX it was 1.6 µM (inactive); with NCI-H226, > 100 µM (inactive); in the assay with HOP-62, > 100 µM (inactive); in the assay with SK-MEL-5 it was > 100 µM (inactive); in the assay on IGROV-1 it was > 100 µM (inactive). The GI50 is > 100 µM (inactive) with SN12C, > 100 µM (inactive) in the assay with HCT-116, greater than 100 µM with HCT-15 and > 100 µM (inactive) in the assay with CAKI-1.

In the case of `CC12C(=O)CC(CC1=O)C2(C)C`, the GI50 with UACC-62, in the assay with RPMI-8226, with M14, in the assay on SW-620, with TK-10 and in the assay with SK-MEL-28 was > 100 µM (inactive) in each case. The GI50 with SK-OV-3, in the assay with Hs-578T, in the assay with EKVX, with NCI-H226, in the assay with HOP-62 and in the assay with SK-MEL-5 was > 100 µM (inactive) each time. For the same compound, the GI50 with IGROV-1 is > 100 µM (inactive); with NCI-H522, > 100 µM (inactive); in the assay on SN12C, > 100 µM (inactive); in the assay on HCT-116, > 100 µM (inactive); in the assay on HCT-15 it was greater than 100 µM; with CAKI-1, > 100 µM (inactive).

In the case of `CCC(=O)N(c1ccccc1)C(C)CN1CCC(O)(c2cccc(C(F)(F)F)c2)CC1` (stereo not drawn), the GI50 in the assay on UACC-62 is 22.1 µM (inactive); with RPMI-8226 it was 18.7 µM (inactive); in the assay on M14 it was 16.1 µM (inactive); in the assay on SW-620, > 100 µM (inactive); in the assay with TK-10, 25.1 µM (inactive); in the assay on SK-MEL-28 it was 23.1 µM (inactive). In addition, the GI50 is 52.6 µM (inactive) in the assay with SK-OV-3; 34.8 µM (inactive) in the assay with Hs-578T; 31.8 µM (inactive) in the assay with EKVX; 30.2 µM (inactive) with NCI-H226; 21.5 µM (inactive) in the assay on HOP-62; 20.6 µM (inactive) in the assay on SK-MEL-5. For the same compound, the GI50 is 59.2 µM (inactive) with IGROV-1; 20.2 µM (inactive) in the assay with NCI-H522; 37.9 µM (inactive) with SN12C; 17.3 µM (inactive) in the assay with HCT-116; 30.6 µM with HCT-15; > 100 µM (inactive) in the assay on CAKI-1.

For `O=C1OC(C(O)CO)C(C(O)CO)OC1=O` (stereo not drawn), the GI50 in the assay on UACC-62, in the assay on RPMI-8226, in the assay on SR, in the assay with M14, in the assay on SW-620 and with TK-10 was > 10 µM (inactive) throughout. The GI50 in the assay with SK-MEL-28, in the assay on Hs-578T, in the assay on EKVX, with NCI-H226, in the assay on HOP-62 and with SK-MEL-5 was > 10 µM (inactive) in each case. Further, the GI50 in the assay on IGROV-1 is > 10 µM (inactive); in the assay with SN12C, > 10 µM (inactive); in the assay with HCT-15, greater than 10 µM; in the assay with CAKI-1, > 10 µM (inactive).
